According to US5304548A, “Bivalent ligands effective for blocking ACAT enzyme for lowering plasma triglycerides and for elevating HDL cholesterol” (The Upjohn Company, priority 1992, dated 1994):
Values after ≈ are worked out from the molar mass of the structure shown. “Also recorded” adds a separate entry of the source.

What was measured:
[1] = test system: acyl-CoA: cholesterol O-acyltransferase enzyme (ACAT); assay: Inhibition of cellular ACAT (esterification of 3H-cholesterol taken up by cells); conditions: for IC50: ACAT inhibition; for ACAT inhibition, result in words: comparison bivalent vs. monomeric / by dose
[2] = Antiatherosclerotic activity, Netherland dwarf rabbits on cholesterol-containing atherogenic diet, twelve weeks; type: in vivo, Netherland dwarf rabbit; conditions: 50 mg/kg/day
Description: In another experiment, ACAT inhibitor compound Ia (Table 2) was administered for twelve weeks at 50 mg/kg/day to Netherland dwarf rabbits that were feed a cholesterol-containing atherogenic diet. During the twelve week period serum cholesterol, triglycerides, and carnitine were monitored. At the end of the study the aortas from the drug treated group and a non-drug treated group were examined for atherosclerosis development.

[3] = Plasma triglycerides in rats or rabbits whose triglycerides are within normal limits; type: in vivo; conditions: rats or rabbits with triglycerides within normal limits
[4] = Hypercholesterolemic model, obese female Zucker rats (fa/fa), dose response of plasma lipids after 1 week; type: in vivo, Zucker rat; conditions: genetically obese Zucker rats
Description: Obese female Zucker rats (fa/fa) weighing 500-600 g were used in the study. These animals are endogenously hypertriglyceridemic and hypercholesterolemic as was described above. Basal plasma triglycerides, cholesterol, and HDL-C levels were determined in individual rats (Ektachem DT 60 Analyzer) which were then randomly assigned to four Compound Ia (Ia) treatment groups (5 mg/kg, n=4; 10 mg/kg, n=4; 20 mg/kg, n=4; 30 mg/kg, n=3). The animals were all individually housed and received Purina Chow pellets (#5002) containing IA at levels calculated to provide the daily doses of Ia described above. After 1 week, all rats were bled by cardiac puncture for determination of plasma triglycerides, cholesterol, and HDL-C. An additional group of rats (n=3) receiving chow alone was run in parallel with the treatment groups as an additional control for the experiment. Each animal acted as its own control since plasma lipid parameters were measured in each animal immediately prior to dosing. The data for triglycerides, cholesterol, and HDL-C were adjusted for this pre-dosing value using a percent change calculation: ((Post-Pre)/Pre)100 . For all 3 measurements, a simple linear model was fit to the percent change value vs log 10 (dose). The logarithmic transformation was used to linearalize the relationship.

[5] = Antiatherosclerotic activity, SEA quail on high cholesterol diet, oral compound, arteries analysed after eight weeks; type: in vivo, SEA Japanese quail; conditions: statistically significant
Description: For example, five to six week old, male, SEA quails were placed on a high cholesterol diet with one group orally receiving the subject ACAT inhibitor compound Ia (Table 2). After eight weeks the arteries were removed, cleaned and homogenized. Total cholesterol, free cholesterol and triglycerides were measured.

[6] = Hypertriglyceridemia model, female Zucker rats (fafa), compound in chow with cross-over; type: in vivo, Zucker rat
Description: Female Zucker rats (fafa, 378±3) were maintained on a pelleted chow diet (Purina Chow #5001) or the chow diet which contained Compound Ia (Ia) at a level calculated to deliver 50 mg/kg/day. The Ia containing pellets were prepared from #5001 meal into which the drug had been pre-mixed and subsequently pelletized. […] The plasma was obtained from heparinized blood taken by cardiac puncture and the lipids were measured using an Ektachem DT60 analyzer (Eastman Kodak).

SMILES	% ACAT Inhibition ([1]; 5 μg/ml) [%]	% ACAT Inhibition ([1]; 10 μg/ml) [%]	% ACAT Inhibition ([1]; 15 μg/ml) [%]	also measured
COc1c2c(c(OC)c3occc13)OC(=CN1CCC(CCCC3CCN(C=C4Oc5c(c(OC)c6ccoc6c5OC)C4=O)CC3)CC1)C2=O [Compound III]	18	29	52	
COc1c2occc2c(OC)c2c(=O)nc(N3CCC(CCCC4CCN(c5nc(=O)c6c(OC)c7ccoc7c(OC)c6o5)CC4)CC3)oc12 [Compound II]	60	89	97	IC50 [1]: 1.8 µg/mL (≈ 2.57 µM)
COc1c2c(c(OC)c3occc13)OC(=CNCCCCCCCCNC=C1Oc3c(c(OC)c4ccoc4c3OC)C1=O)C2=O [Compound IX]	63	52	51	ACAT inhibition, result in words [1]: excellent inhibition over its monomeric counterparts; also recorded: surprisingly good inhibitory activity even at the 5 μg/ml dose
COc1c2occc2c(OC)c2c(=O)cc(CN3CCC(CCCC4CCN(Cc5cc(=O)c6c(OC)c7ccoc7c(OC)c6o5)CC4)CC3)oc12 [Compound I]	68	84	91	IC50 [1]: 4.2 µg/mL (≈ 5.78 µM); ACAT inhibition, result in words [1]: enhanced potency
COc1c2occc2c(OC)c2c(=O)cc(CN3CCC(CCC4CCN(Cc5cc(=O)c6c(OC)c7ccoc7c(OC)c6o5)CC4)CC3)oc12 [Compound Ia]	87	84	75	mean serum cholesterol level ([2]; control exceeded 2200 mg/dl): 271 mg/dL; atheromatous lesion development ([2]; extensive in controls): negligible atheromatous lesion development; development of hypercholesterolemia ([2]; vs. control): less extensive development of hypercholesterolemia; effect on plasma triglyceride levels [3]: very little effect on plasma triglyceride levels; plasma HDL cholesterol, result in words [4]: dose dependent elevation of plasma HDL cholesterol; also recorded: significant linear positive relationship between the % change HDL-C and log 10 (dose); also recorded: ability to elevate HDL-cholesterol; plasma total cholesterol, result in words [4]: without significant changes in plasma total cholesterol; also recorded: hypotriglyceridemic effect can be dissociated from a tendency to elevate plasma cholesterol; plasma triglycerides, result in words [4]: dose-dependent reduction in plasma triglycerides; also recorded: significant negative relationship between % change in plasma triglycerides and log 10 (dose); also recorded: confirmed the triglyceride lowering activity; reduction in the accumulation of esterified cholesterol in the arteries [5]: thirty; mean plasma cholesterol ([6]; Ia administration, 50 mg/kg/day, from 126±18): 174 ± 8 mg/dL; plasma cholesterol, cross-over ([6]; controls crossed over to Ia at day 27, from 118±24, three of four animals increased): 164 ± 22 mg/dL; plasma triglycerides, cross-over ([6]; controls crossed over to Ia, 5 day cross-over period, from 2872±742): 656 ± 242 mg/dL; plasma cholesterol after withdrawal ([6]; drug withdrawn day 16): restored essentially to pretreatment levels; plasma triglycerides after withdrawal ([6]; drug withdrawn on day 16, within 1 week): essentially returned to pretreatment levels within 1 week; plasma triglycerides, lowest level reached ([6]; from levels as high as 3000 mg/dl): less than 300 mg/dl; plasma triglycerides ([6]; within 8 days of addition to diet, 50 mg/kg/day, from group mean 2431±446): 260 ± 52 mg/dL; IC50 [1]: 0.8 µg/mL (≈ 1.12 µM)
COc1c2occc2c(OC)c2c(=O)cc(CN3CCN(CCN4CCN(Cc5cc(=O)c6c(OC)c7ccoc7c(OC)c6o5)CC4)CC3)oc12 [Compound Ib]	5	6	2	
COc1c2occc2c(OC)c2c(=O)cc(CN3CCN(CC(O)CN4CCN(Cc5cc(=O)c6c(OC)c7ccoc7c(OC)c6o5)CC4)CC3)oc12 [Compound Ic]	7	13	15	
COc1c2occc2c(OC)c2c(=O)cc(CN3CCC(C4CCN(Cc5cc(=O)c6c(OC)c7ccoc7c(OC)c6o5)CC4)CC3)oc12 [Compound Id]	0	0	0	
COc1c2c(c(OC)c3c(=O)cc(CN4CCC(CCC5CCN(Cc6cc(=O)c7c(OC)c8c(c(OC)c7o6)OCC8)CC5)CC4)oc13)CCO2 [Compound V, 7,7'-(1,2-Ethanediylbis(4,1-piperidinediylmethylene))bis-2,3-dihydro-4,9-dimethoxy-5H-furo(3.2-g)(1)benzopyran-5-one]	63	73	74	IC50 [1]: 3.0 µg/mL (≈ 4.19 µM)
COc1c2c(c(OC)c3occc13)OC(=CNCCCN1CCN(CCCNC=C3Oc4c(c(OC)c5ccoc5c4OC)C3=O)CC1)C2=O [Compound VIII]	32	41	49	
COc1c2c(c(OC)c3occc13)OC(=CN1CCC(CCCC3CCN(C=C4Oc5c(c(OC)c6ccoc6c5OC)C4=O)CC3)CC1)C2=O [Compound VII]				ACAT inhibition, result in words [1]: active at the high dose tested (15 μg/ml)
COc1c2oc([Si](C)(C)C)cc2c(OC)c2c(=O)cc(CN3CCC(CCC4CCN(Cc5cc(=O)c6c(OC)c7cc([Si](C)(C)C)oc7c(OC)c6o5)CC4)CC3)oc12 [Compound VI]	18	29	52	
COc1c2occc2c(OC)c2c(=O)cc(CN3CCC(C)CC3)oc12 [IV, reference compound]	10	27	39	ACAT inhibition, result in words [1]: reduced percent ACAT inhibition
COc1c2c(c(OC)c3occc13)OC(=CNC1CCCCC1)C2=O [reference compound]	47	55	65	
COc1c2c(c(OC)c3occc13)OC(=CNCc1ccccc1)C2=O [reference compound]	50	66	78	
